The supplement of paper PMC10307832

Experiments:
Assay in all cases: relative viability (nuclei count vs DMSO), 5 days (fraction); higher = more cells survive
[1] = compound: CCC1=CN=CN=C1N2CCN(CC2)CC3=NC4=C(N3)C=C(C=C4)C(F)(F)F + Cc1nc(NC(=O)N2CCC[C@H]2C(N)=O)sc1-c1ccnc(C(C)(C)C(F)(F)F)c1 [Alpelisib] (partner 2 µM)
Outline: (§1)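 After 5 days of treatment, lung cancer cells in 1536-well plates were fixed and stained in a single step (final 0.05% Triton X-100, 1% formaldehyde, 1 ug/ml Hoechst) and their nuclei counted on 4× images. Treatment had been applied by pin tool the day after seeding as one drug alone or as a fixed anchor-drug dose with five library-drug doses (not always all listed) in √10 steps. Relative viability is the nuclei count of treated wells divided by that of vehicle wells, and values are medians of duplicate plates.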

[2] = compound: CCn1c(-c2nonc2N)nc2cnc(Oc3cccc(NC(=O)c4ccc(OCCN5CCOCC5)cc4)c3)cc21 + Cc1cc(Nc2cc(N3CCN(C)CC3)nc(Sc3ccc(NC(=O)C4CC4)cc3)n2)n[nH]1 [Tozasertib] (partner 0.1 µM)
Outline: as §1

Mirin + Navitoclax = compound: N=C1NC(=O)/C(=C/c2ccc(O)cc2)S1 [Mirin] + CC1(C)CCC(c2ccc(Cl)cc2)=C(CN2CCN(c3ccc(C(=O)NS(=O)(=O)c4ccc(N[C@H](CCN5CCOCC5)CSc5ccccc5)c(S(=O)(=O)C(F)(F)F)c4)cc3)CC2)C1 [Navitoclax] (partner 0.5 µM)
Outline: as §1

Mirin + AZD7762 = compound: N=C1NC(=O)/C(=C/c2ccc(O)cc2)S1 [Mirin] + NC(=O)Nc1cc(-c2cccc(F)c2)sc1C(=O)N[C@H]1CCCNC1 [AZD7762] (partner 0.2 µM)
Outline: as §1

| Cell Line | relative viability ([1]; first compound 0.04 µM) | relative viability ([1]; first compound 0.1265 µM) | relative viability ([1]; first compound 0.4 µM) | relative viability ([1]; first compound 1.265 µM) | relative viability ([1]; first compound 4 µM) | relative viability ([2]; first compound 0.04 µM) | relative viability ([2]; first compound 0.1265 µM) | relative viability ([2]; first compound 1.265 µM) | relative viability ([2]; first compound 4 µM) | relative viability (Mirin + Navitoclax; first compound 0.25 µM) | relative viability (Mirin + Navitoclax; first compound 0.7906 µM) | relative viability (Mirin + Navitoclax; first compound 2.5 µM) | relative viability (Mirin + Navitoclax; first compound 7.906 µM) | relative viability (Mirin + Navitoclax; first compound 25 µM) | relative viability (Mirin + AZD7762; first compound 0.25 µM) | relative viability (Mirin + AZD7762; first compound 0.7906 µM) | relative viability (Mirin + AZD7762; first compound 2.5 µM) | relative viability (Mirin + AZD7762; first compound 7.906 µM) | relative viability (Mirin + AZD7762; first compound 25 µM) | relative viability ([2]; first compound 0.4 µM) |
| --- | --- | --- | --- | --- | --- | --- | --- | --- | --- | --- | --- | --- | --- | --- | --- | --- | --- | --- | --- | --- |
| NCI-H441 | 0.662 | 0.629 | 0.762 | 0.753 | 0.612 | 0.834 | 0.546 | 0.344 | 0.354 | 0.49 | 0.802 | 0.571 | 0.447 | 0.483 | 1.36 | 1.05 | 1.23 | 1.2 | 1.18 |  |
| NCI-H1993 | 0.593 | 0.623 | 0.743 | 0.77 | 0.727 | 0.634 | 0.705 | 0.501 | 0.455 | 1.03 | 1.02 | 0.913 | 0.932 | 0.749 | 0.897 | 0.628 | 0.679 | 0.808 | 0.971 | 0.502 |
| NCI-H1437 | 1 | 0.93 | 0.831 | 0.795 | 0.855 | 0.432 | 0.382 | 0.315 | 0.314 | 1.09 | 1.09 | 1.12 | 1.07 | 1.05 | 1.06 | 1.18 | 1.11 | 1.1 | 1.06 | 0.383 |
| PC-14 | 1.07 | 0.869 | 0.959 | 0.766 | 0.982 | 0.691 | 0.47 | 0.326 | 0.321 | 1.04 | 1.04 | 1.08 | 1.03 | 1.17 | 0.389 | 0.481 | 0.365 | 0.313 | 0.429 | 0.422 |
| NCI-H1666 | 0.877 | 0.913 | 0.903 | 0.851 | 0.95 | 0.65 | 0.675 | 0.368 | 0.326 | 0.921 | 0.941 | 1.03 | 0.719 | 0.59 | 0.908 | 1.06 | 0.909 | 0.757 | 0.917 | 0.582 |
| NCI-H1944 | 0.993 | 0.827 | 0.778 |  | 0.802 | 0.248 | 0.279 | 0.228 | 0.213 | 1.03 |  | 1.07 | 1.08 | 0.861 | 0.555 | 0.569 | 0.537 | 0.381 | 0.381 | 0.273 |
| NCI-H1755 | 0.881 | 0.913 | 0.923 | 0.862 | 0.895 | 0.527 | 0.58 | 0.416 | 0.349 | 1.03 | 1.11 | 1.03 | 1.09 | 1.14 | 0.503 | 0.431 | 0.472 | 0.383 | 0.453 | 0.534 |
| NCI-H2347 | 1.07 | 1.07 | 0.948 | 0.769 | 0.938 | 0.634 | 0.637 | 0.45 | 0.395 | 0.8 | 0.784 | 0.812 | 0.825 | 0.893 | 0.946 | 0.786 | 0.861 | 0.669 | 0.704 | 0.674 |
| 201T | 1 | 0.988 | 0.995 | 0.902 | 1.06 | 1.02 | 0.937 | 0.919 | 1.01 | 1.18 | 1.27 | 1.18 | 1.32 | 1.33 | 0.581 | 0.754 | 0.673 | 0.441 | 0.552 | 0.958 |
| NCI-H1734 | 0.686 | 0.754 | 0.795 |  | 0.676 | 0.223 | 0.264 | 0.179 | 0.212 | 0.838 | 0.746 | 0.793 | 0.742 | 0.771 | 0.529 | 0.42 | 0.549 | 0.498 | 0.483 | 0.234 |
| NCI-H596 | 0.573 | 0.431 | 0.443 | 0.459 | 0.508 | 1.24 | 0.945 | 0.743 | 1.01 | 0.966 | 0.855 | 0.96 | 1.15 | 0.962 | 1 | 1.02 | 1.09 | 1.05 | 1.11 | 0.828 |
| NCI-H1355 | 0.815 | 0.74 | 0.807 | 0.732 | 0.797 | 0.654 | 0.652 | 0.563 | 0.569 | 1 | 0.989 | 1.07 | 0.897 | 0.979 | 0.776 | 0.912 | 0.845 | 0.66 | 0.799 | 0.582 |
| NCI-H1915 | 1.1 | 1.03 | 1.06 | 0.957 | 1.03 | 0.499 | 0.457 | 0.396 | 0.406 | 0.775 |  | 0.76 | 0.743 | 0.866 | 0.674 | 0.726 | 0.712 | 0.59 | 0.745 | 0.417 |
| BEN | 0.961 | 0.965 | 0.898 | 0.574 | 0.583 | 0.453 | 0.415 | 0.494 | 0.357 | 0.0987 | 0.0819 | 0.0674 | 0.0737 | 0.0559 | 0.711 | 0.711 | 0.735 | 0.574 | 0.494 | 0.518 |
| NCI-H322M | 0.741 | 0.892 | 0.749 | 0.705 | 0.748 | 0.481 | 0.466 | 0.366 | 0.403 | 1.26 | 1.28 | 1.25 | 1.22 | 1.31 | 0.508 | 0.653 | 0.51 | 0.551 | 0.57 | 0.459 |
| HOP-62 | 1.16 | 0.962 | 0.815 | 1.01 | 1.13 | 0.393 | 0.445 | 0.283 | 0.234 | 1.03 | 1.02 | 0.955 | 0.888 | 1.43 | 0.729 | 1.08 | 0.478 | 0.549 | 0.383 | 0.344 |
